The values that follow are results of earlier work, collected in patent US20120028943A1, “Medicinal Cream Made Using Fluticasone Propionate And Chitosan And A Process To Make The Same” (APEX LABORATORIES PRIVATE LIMITED, priority 2009, published 2012).

Data set [1] addresses T1, human glucocorticoid receptors (Homo sapiens, UniProt P04150).
T1 sequence (P04150 1-777): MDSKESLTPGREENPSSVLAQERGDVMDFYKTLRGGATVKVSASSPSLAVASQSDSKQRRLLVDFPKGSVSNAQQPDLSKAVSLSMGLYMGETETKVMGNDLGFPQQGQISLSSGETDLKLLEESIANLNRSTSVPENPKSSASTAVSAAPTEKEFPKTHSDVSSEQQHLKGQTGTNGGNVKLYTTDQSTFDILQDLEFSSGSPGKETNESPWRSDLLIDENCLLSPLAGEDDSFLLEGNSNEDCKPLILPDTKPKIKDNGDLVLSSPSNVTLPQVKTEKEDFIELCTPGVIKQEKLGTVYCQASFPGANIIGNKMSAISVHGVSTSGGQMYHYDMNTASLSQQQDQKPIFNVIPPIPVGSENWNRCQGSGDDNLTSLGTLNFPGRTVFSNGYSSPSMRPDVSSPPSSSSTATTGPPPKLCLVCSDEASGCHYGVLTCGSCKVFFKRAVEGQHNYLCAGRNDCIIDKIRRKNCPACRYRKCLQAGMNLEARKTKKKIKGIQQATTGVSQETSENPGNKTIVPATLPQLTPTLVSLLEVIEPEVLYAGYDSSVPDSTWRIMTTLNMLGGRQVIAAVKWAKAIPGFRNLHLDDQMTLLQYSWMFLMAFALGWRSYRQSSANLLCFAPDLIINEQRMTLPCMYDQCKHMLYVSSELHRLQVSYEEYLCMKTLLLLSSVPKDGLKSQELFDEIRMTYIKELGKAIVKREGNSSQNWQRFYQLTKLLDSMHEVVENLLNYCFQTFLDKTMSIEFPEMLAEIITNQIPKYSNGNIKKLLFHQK

Data set [2] addresses T1, human glucocorticoid receptors. Particulars: in vitro.
Test in data set [3]: not given
The source holds these as a separate data set.

In data set [4] the test system is HPA (hypothalamic-pituitary-adrenal)-axis. Particulars: after dermal administration.
For the next data set, the system named is human plasma proteins. Particulars: averaged.
Another data set concerns the target T2, human transcortin (Homo sapiens, UniProt P08185).
T2 sequence (P08185 23-405): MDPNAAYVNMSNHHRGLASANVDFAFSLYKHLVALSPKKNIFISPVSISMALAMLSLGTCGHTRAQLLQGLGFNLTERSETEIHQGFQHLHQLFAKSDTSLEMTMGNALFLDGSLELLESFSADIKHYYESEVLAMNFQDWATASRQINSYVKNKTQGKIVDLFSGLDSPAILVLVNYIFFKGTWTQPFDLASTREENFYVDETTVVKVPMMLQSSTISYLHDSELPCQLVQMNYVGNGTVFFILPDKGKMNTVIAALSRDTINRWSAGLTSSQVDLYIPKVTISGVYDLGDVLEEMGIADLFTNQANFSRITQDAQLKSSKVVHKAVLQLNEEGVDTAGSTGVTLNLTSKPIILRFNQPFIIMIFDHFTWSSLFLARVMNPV

Another data set has as its target cytochrome P450 3A4 (Homo sapiens, UniProt P08684). Particulars: liver.

Sequence of cytochrome P450 3A4 (P08684 whole entry): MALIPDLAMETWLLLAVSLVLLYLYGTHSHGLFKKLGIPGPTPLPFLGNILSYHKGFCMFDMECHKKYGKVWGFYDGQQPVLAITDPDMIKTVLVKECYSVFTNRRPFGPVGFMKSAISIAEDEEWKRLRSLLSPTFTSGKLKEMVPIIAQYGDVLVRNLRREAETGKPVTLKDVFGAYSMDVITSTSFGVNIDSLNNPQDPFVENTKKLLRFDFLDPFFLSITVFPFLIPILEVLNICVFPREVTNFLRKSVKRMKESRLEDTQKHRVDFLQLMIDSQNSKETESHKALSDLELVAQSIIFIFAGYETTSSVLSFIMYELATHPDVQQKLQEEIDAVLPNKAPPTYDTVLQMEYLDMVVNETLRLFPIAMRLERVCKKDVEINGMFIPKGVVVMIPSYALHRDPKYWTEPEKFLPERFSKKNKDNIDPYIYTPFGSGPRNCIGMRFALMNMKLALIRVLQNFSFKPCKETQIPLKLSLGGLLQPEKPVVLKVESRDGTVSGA

In the case of `CCC(=O)O[C@]1(C(=O)SCF)[C@H](C)C[C@H]2[C@@H]3C[C@H](F)C4=CC(=O)C=C[C@]4(C)[C@@]3(F)[C@@H](O)C[C@@]21C` [Fluticasone propionate, S-(fluoromethyl)6α,9-difluoro-11β-17-dihydroxy-16α-methyl-3-oxoandrosta-1,4-diene-17β-carbothioate, 17-propionate], under “95% ethanol”, the “solubility in 95% ethanol” value is given as “slightly soluble”. The “solubility in dimethyl sulfoxide” value (dimethyl sulfoxide) is recorded as “freely soluble”. Besides, under “dimethylformamide”, the solubility in dimethylformamide entry was “freely soluble”. For the same molecule, the solubility in methanol result (methanol) is “slightly soluble”. The solubility in water entry (water) is reported as “practically insoluble”. Further, the “selectivity to the glucocorticoid receptor” value in data set [1] is on record as “high degree of selectivity”. In [1] (in vitro), the “affinity for human glucocorticoid receptors” value is “strong affinity”. Besides, the “agonist activity at human glucocorticoid receptors” value in data set [2] is “agonist activity”. For the same molecule, the topical anti-inflammatory potency entry in data set [3] is recorded as “high”. For the same molecule, the HPA-axis suppressive activity entry in data set [4] is listed as “low”. In addition, in the data set on human plasma proteins, the “percentage bound to human plasma proteins” value is listed as 91%. Moreover, the binding to erythrocytes entry in the data set with erythrocytes is “weakly and reversibly bound”. For the same molecule, on human transcortin, the “binding to human transcortin” value is “not significantly hound”. Besides, the metabolism result at cytochrome P450 3A4 was “metabolized in the liver by cytochrome P450 3A4-mediated hydrolysis”.
